Data as given in patent US20180177749A1, “USE OF CYP EXPRESSION TO DIRECT THERAPEUTIC INTERVENTION IN CANCER” (REGENTS OF THE UNIVERSITY OF MINNESOTA, priority 2016, published 2018).
“Also recorded” adds a separate entry of the source. Like-named read-outs stand apart in the source and are kept apart here.

Columns and labels:
MDA-MB-231 cells = test: JC-1 mitochondrial membrane potential staining, MDA-MB-231; type: cell-based, human; conditions: HBB 20 μM 4 hours, (±)-14,15-EET 1 μM
Description: (§1) Cells were grown in chamber slides at 37° C. with 5% CO2 and treated with DMSO or HBB for 4 hours before JC-1 dye was added for the MCF-7 or MDA-MB-231 cell line. […] Images of red fluorescence (590 nm) and green fluorescence (530 nm) were acquired using an Olympus 1X70 microscope fitted with an Olympus DP70 digital camera (Olympus, Tokyo, Japan).

MDA-MB-231 cell line = test: Western blot of AMPK phosphorylation, MDA-MB-231; type: cell-based, human; conditions: 1.0 μM, 24 hours
Description: (§2) RIPA extracts of cells were prepared as described previously, in the presence of protease inhibitors and phosphatase inhibitors. Protein concentrations were determined by the micro-bicinchoninic acid (BCA) method, and 30 μg of protein was used for each lane of the SDS-polyacrylamide gel Western blot. Relative protein expression was estimated using GAPDH or β-actin as an internal standard.

MCF-7 cells [1] = test: JC-1 mitochondrial membrane potential staining, MCF-7; type: cell-based, human; conditions: HBB 20 μM 4 hours, (±)-14,15-EET 1 μM
Description: as §1

MCF-7 cells [2] = test: Western blot of signaling proteins, MCF-7; type: cell-based, human
Description: as §2

MCF-7 cells [3] = test: RPPA analysis of MCF-7 cells treated with (±)-14,15-EET; type: cell-based, human; conditions: 15 minutes
Excerpt: It is proposed that HBB inhibition of ER+ tumor growth is due, in part, to direct inhibition of membrane associated non-mitochondrial CYP3A4, thereby suppressing Stat3 and mTOR signaling due to suppression of EET biosynthesis, resulting in AMPK activation (FIG. 6d, membrane diagram). […] In this model, EETs inhibit AMPK through unknown mechanisms. […] This model therefore proposes two sites of CYP3A4 activity, at cellular membranes and at mitochondria.

MCF-7 = test: MTT cell proliferation assay, MCF-7; type: cell-based; conditions: Homo sapiens, MCF7
Description: Cells were grown at 37° C. in a 5% CO2 incubator. […] MTT was then added (5 mg/ml), and after 2 h of incubation, the plates were centrifuged. The supernatant was removed; DMSO was added, and the absorbance was read at 540 nm with a BioTek 96-well plate reader.

MCF-7 cells [4] = test: Clonogenicity of MCF-7 cells; type: cell-based, human; conditions: 1 mM, 24 hours treatment, 2 weeks culture
Description: FIG. 9A. […] After 24 hours of culture, the medium was then removed followed by addition of CM to the plates (left panel). The plates were then cultured for 2 weeks and at the endpoint the cell colonies were stained with crystal violet and the colonies counted. […] FIG. 9B.

[5] = system: cytochrome P450 reductase (CPR); test: CPR-mediated reduction of cytochrome c; type: biochemical; conditions: 1 and 10 mM
Description: In a quartz cuvette, reduction of cytochrome c reaction was initiated by addition of CPR (final concentration 0.2 mg/mL) to 1 mL potassium phosphate buffer (0.3 M, pH=8.3) containing cytochrome c ([…]) and NADPH 50 ([…]). Absorbance at 550 nm was monitored real time by a Cary 50 UV-Vis Spectrophotometer (Agilent, Santa Clara, Calif.).

CYP2C8 = target: T1, CYP2C8 (Homo sapiens, UniProt P10632); test: Binding to CYP nanodiscs (CYP2C8)
T1 sequence (P10632 1-490): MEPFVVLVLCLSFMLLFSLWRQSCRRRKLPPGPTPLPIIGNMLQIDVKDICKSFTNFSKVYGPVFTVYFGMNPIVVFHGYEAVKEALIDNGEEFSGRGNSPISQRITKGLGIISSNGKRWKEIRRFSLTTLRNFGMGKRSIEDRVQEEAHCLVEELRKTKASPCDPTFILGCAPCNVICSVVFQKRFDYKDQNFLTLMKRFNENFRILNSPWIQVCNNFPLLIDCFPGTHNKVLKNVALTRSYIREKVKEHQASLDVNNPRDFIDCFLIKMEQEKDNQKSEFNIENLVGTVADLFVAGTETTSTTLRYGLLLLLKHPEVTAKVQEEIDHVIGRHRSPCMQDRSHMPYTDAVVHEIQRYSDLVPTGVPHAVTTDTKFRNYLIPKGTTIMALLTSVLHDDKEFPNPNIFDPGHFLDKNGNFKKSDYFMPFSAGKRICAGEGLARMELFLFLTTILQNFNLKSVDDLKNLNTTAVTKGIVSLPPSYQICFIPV

MCF-7 cells [6] = test: Measurement of OCR and ECAR (extracellular flux), MCF-7; type: cell-based, human; conditions: t-AUCB 2.5, 5 μM, metformin 2.5, 5 mM, HBB 20, 40 μM, rotenone 1 μM
Description: Cells were maintained in growth medium consisting of 10% FBS at 37° C. with 5% CO2 and seeded at 100,000 cells per well in XF24-well cell culture microplates (Seahorse Bioscience, North Billirica, Mass.). Concentrated stocks of HBB were prepared in DMSO. HBB was diluted to 10× working concentration in XF assay medium (a non-buffered medium including 2 mM L-glutamine but no sodium bicarbonate (buffering agent), glucose, or sodium pyruvate). Assays were performed in the XF Extracellular Flux Analyzer (Seahorse Bioscience that measures uptake and excretion of metabolic end products in real time). Oxygen consumption rate (OCR) and extracellular acidification rate (ECAR) were measured using an XF Assay Kit. OCR is reported in pmoles/minute and ECAR in mpH/minute. Before analysis, the cells were switched from culture medium to XF assay medium. After baseline measurements, 75 μl of HBB prepared in assay medium was injected into each well to reach final working concentrations. After addition of HBB, OCR and ECAR were measured at 18-minute intervals. […] There were 6 replicates for the studies of the 3-18 and 4-14 cell lines.

MCF-7 cells [7] = test: Cellular EET levels by LC-ESI/MS/MS; type: cell-based, human; conditions: metformin 5 mM, 6 hours
Description: Samples were submitted to liquid chromatography-electrospray ionization/multiple reaction monitoring/mass spectrometry (LC-ESI/MRM/MS) analysis in a Thermo Electron Quantum Discovery Max triple quadrupole mass spectrometer (Thermo Finnigan, San Jose, Calif.) coupled with an Agilent 1100 HPLC (Santa Clara, Calif.), using argon as the collision gas. Negative ion monitoring was performed at the following diagnostic product ions: 319 m/z→155 m/z for 8,9-EET; 319 m/z→179 m/z for 11,12-EET; 319 m/z→219 m/z for 14,15-EET; 339 m/z→163 m/z for 8,9-[13C20]EET; 339 m/z→233 m/z for 11,12-[13C20]EET; and 339 m/z→259 m/z for 14,15-[^13C20]EET. Base-line resolution of EET regioisomers was achieved on a Phenomenex Luna C18 (2) reverse phase capillary column (250×0.5 mm, 5-μm particles) using the following mobile phase combinations: isocratic 5% B for 5 min, gradient 5-70% B for 5 min, hold at 70% for 30 min and then 95% for 10 min; A: 0.01% acetic acid in water, B: 0.01% acetic acid in acetonitrile; […] flow rate. A standard curve was obtained by linear regression of the peak area ratio of authentic EET regioisomers against internal standards. The amount of EETs in samples was calculated according to the standard curve. The (±)-5,6-EET regioisomer was not measured because it undergoes rapid internal degradation. […]

CYP2J2 [8] = target: T2, CYP2J2 (Homo sapiens, UniProt P51589); test: Binding to CYP nanodiscs (CYP2J2)
T2 sequence (P51589 1-502): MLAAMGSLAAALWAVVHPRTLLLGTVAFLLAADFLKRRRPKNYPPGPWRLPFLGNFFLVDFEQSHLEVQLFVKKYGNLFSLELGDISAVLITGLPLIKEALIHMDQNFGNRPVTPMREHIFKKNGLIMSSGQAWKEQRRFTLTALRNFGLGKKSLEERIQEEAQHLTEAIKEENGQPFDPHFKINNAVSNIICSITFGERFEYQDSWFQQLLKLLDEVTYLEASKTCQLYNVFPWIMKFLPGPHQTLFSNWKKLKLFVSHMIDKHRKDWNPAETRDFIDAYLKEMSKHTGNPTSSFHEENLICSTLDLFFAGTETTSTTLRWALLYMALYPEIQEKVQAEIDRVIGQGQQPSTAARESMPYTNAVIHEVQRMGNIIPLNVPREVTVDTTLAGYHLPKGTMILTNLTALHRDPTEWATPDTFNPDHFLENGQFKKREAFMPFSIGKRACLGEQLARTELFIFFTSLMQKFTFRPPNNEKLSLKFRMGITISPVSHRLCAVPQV

CYP2J2 [9] = target: T2, CYP2J2; test: CYP2J2 epoxygenase activity; conditions: 0.75, 1.5 or 3 mM
MCF-7 xenograft = conditions: 100-fold higher dosing than HBB (Ma et al.); cited from earlier work
MCF-7 cells [10] = test: Cellular ATP by luminescent assay; type: cell-based, human; conditions: 6 hours of treatment; metformin 5 mM
Description: Cells were seeded in 96-well tissue culture plate in 100 μL medium per well. After treatment with either vehicle or testing compound for an appropriate length of time, 50 μL mammalian cell lysis solution was added to each well and the plate was shaken for 5 minutes on an orbital shaker. To each well, 50 μL luminescent substrate and luciferase solution were then added. After incubation in the dark for 10 minutes, the luminescence measured. Cellular ATP levels were then calculated against a standard curve generated with ATP standards of known concentration.

[11] = read-out: IC50, MCF-7 breast cancer cell line

For `CCCCCC1OC1C/C=C\C/C=C\C/C=C\CCCC(=O)O` (racemic) [(±)-14,15-EET, (±)-14,15-(5Z,8Z,11Z)-EET], the “mitochondrial membrane potential (ΔΨm), JC-1” value (MDA-MB-231 cells) was “increased mitochondrial membrane potential”, the AMPK phosphorylation (MDA-MB-231 cell line) was “no effect on AMPK phosphorylation” and the “mitochondrial membrane potential (ΔΨm), JC-1” value (MCF-7 cells [1]) was “increased mitochondrial cross membrane potential”. The “AMPK phosphorylation (pAMPK)” value (MCF-7 cells [2]; 1 μM, 24 hours, MCF-7) was “suppression of pAMPKc”, the “Stat3 phosphorylation on Y705 and S727” value (MCF-7 cells [3]) was “activated” and the “total mTOR level” value (MCF-7 cells [3]) was “increased”.

For `CCCCCCNC(=N)NC(=N)NCc1ncc[nH]1` [HIB, N1-hexyl-N5-[(1H-imidazol-2-yl)methyl]-biguanide], the IC50 (MCF-7; [11]) was about 500 µM and the IC50 (MCF-7; read-out: IC50 MCF-7) was 500 µM.

For `CCCCCCNC(=N)NC(=N)NCc1ccncc1` [HPB, N1-hexyl-N5-(pyridin-4-ylmethyl) biguanide], the IC50 (MCF-7; [11]) was 40 µM and the IC50 (MCF-7; read-out: IC50 MCF-7) was 40 µM.

`CCCCNC(=N)N=C(N)N` [buformin, reference compound] gave an IC50 (MCF-7; read-out: IC50 MCF-7) of over 10000 µM.

With `CN(C)C(=N)N=C(N)N` [metformin] the clonogenicity (MCF-7 cells [4]) was “Inhibits Clonogenicity”, the “CPR-mediated reduction of cytochrome c” value [5] was “not affected” and the “CPR-mediated reduction of cytochrome c” value ([5]; listed as Metformin) was “failed to inhibit”. For the same molecule, the “binding to CYP2C8” value (CYP2C8) was “binds”, the “extracellular acidification rate (ECAR)” value (MCF-7 cells [6]) was “marginal” and the “oxygen consumption rate (OCR)” value (MCF-7 cells [6]) was “marginal reduction of OCR”. For the same molecule, the “cellular EET levels” value (MCF-7 cells [7]) was “reduced”, the IC50 (MCF-7; read-out: IC50 MCF-7) was 5000 µM and the “binding to CYP2J2” value (CYP2J2 [8]) was “binds”. The CYP3A4 protein levels (MCF-7 cells [2]; 1 mM, 48 hours) was “did not affect; also recorded: did not change CYP3A4 protein levels”, the “onset of AMPK activation (phosphorylation)” value (MCF-7 cells [2]; HBB 20 μM, metformin 5 mM) was “first detectable after 6 hours” and the “inhibition of CYP2J2 epoxygenase activity” value (CYP2J2 [9]) was “not inhibited”. For the same molecule, the “activity on the MCF-7 xenograft” value (MCF-7 xenograft) was “little activity” and the “total cellular ATP levels” value (MCF-7 cells [10]) was “unchanged; also recorded: failed to deplete cellular ATP”.

Work on `N=C(N)/N=C(\N)NCCc1ccccc1` [phenformin, reference compound] yielded an IC50 (MCF-7; read-out: IC50 MCF-7) of 7000 µM.

In the case of `C=C(C)[C@H]1Cc2c(ccc3c2O[C@@H]2COc4cc(OC)c(OC)cc4[C@@H]2C3=O)O1` [rotenone], the “extracellular acidification rate (ECAR)” value (MCF-7 cells [6]) is reported as “Reduction of OCR and ECAR was highly significant” and the “oxygen consumption rate (OCR)” value (MCF-7 cells [6]) is reported as “Reduction of OCR and ECAR was highly significant”.
